Assay results from patent publication EP0317873B1, “Radioiodinated benzamides and method of their use as radioimaging agents” (THE VANDERBILT UNIVERSITY, priority 1987, dated 1989).

What was measured:
D-2 receptor [1] = target: T1, D-2 receptor (Rattus norvegicus, UniProt P61169); test: Displacement of [3H]sulpiride binding to rat striatal membranes (receptor binding assay); conditions: read-out: [³H]sulpiride binding IC₅₀, radioligand concentration 2.9 nM, nonspecific binding in the presence of 10 µM sulpiride, 30 min at 37°C
T1 construct: 90 µL of the striatal membrane preparation; from tissue; host or cells: rat striatum (membrane preparation)
T1 sequence (P61169 whole entry): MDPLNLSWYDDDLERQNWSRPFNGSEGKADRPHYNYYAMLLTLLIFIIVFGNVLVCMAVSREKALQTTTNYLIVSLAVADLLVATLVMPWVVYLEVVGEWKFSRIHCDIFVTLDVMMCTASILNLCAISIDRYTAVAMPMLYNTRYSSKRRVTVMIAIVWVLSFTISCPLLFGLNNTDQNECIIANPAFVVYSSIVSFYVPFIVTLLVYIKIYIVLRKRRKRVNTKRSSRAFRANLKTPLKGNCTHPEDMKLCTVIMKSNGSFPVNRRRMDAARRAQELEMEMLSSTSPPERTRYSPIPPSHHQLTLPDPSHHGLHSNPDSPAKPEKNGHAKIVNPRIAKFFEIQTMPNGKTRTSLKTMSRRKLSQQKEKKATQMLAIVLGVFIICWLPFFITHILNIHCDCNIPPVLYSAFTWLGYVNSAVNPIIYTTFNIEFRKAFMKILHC
Protocol: (§1) Lett. 64:163-168 (1986). […] Male Sprague-Dawley rats (150-200 g) were killed by decapitation and their brains quickly removed and dissected on ice. Striata were dissected and homogenized in 40 vol of ice-cold Tris-HCl (50 mM) containing 123 mM NaCl, 5 mM KCl, 2 mM CaCl₂ and 1 mM MgCl₂ (pH 7.4) using a Brinkman Polytron. The suspension was centrifuged at 30,000 x g for 10 min at 4°C, and the pellet was resuspended in 40 vol of fresh buffer with polytron. The suspension was incubated at 37°C for 10 min, centrifuged again at 30,000 x g for 10 min (4°C) and the final pellet was resuspended with the polytron in 200 vol of ice cold buffer. Assay tubes contained 50 µM or radioligand at 2.9 nM concentration and 90 µL of the striatal membrane preparation. Nonspecific binding was determined in the presence of 10 µM(-)[¹²⁵I](S)-II. Tubes were incubated for 30 min at 37°C, poured over Whatman GF/B filters under vacuum, and the filters were rinsed three times with 4 mL of ice cold buffer. Radioactivity remaining on the filters was measured by liquid scintillation on a Quantum 9 Multichannel analyzer operating at 35% efficiency.

D-2 receptor [2] = target: T1, D-2 receptor; test: Displacement of [125I](S)-II binding to rat striatal membranes (receptor binding assay); conditions: radioligand concentration 0.46 nM, nonspecific binding in the presence of 10 µM of (S)-II, 30 min at 37°C, read-out: [¹²⁵I]-(S) II binding IC₅₀
Protocol: as §1, with “Assay tubes contained 50 µM or radioligand at 2.9 nM concentration and 90 µL of the striatal membrane preparation.” left out

D-2 receptor [3] = target: T1, D-2 receptor; test: Saturation binding of [125I](S)-II to rat striatal membranes (Scatchard analysis, time course)
Protocol: Male Sprague-Dawley rats (150-200 g) were killed by decapitation and their brains quickly removed and dissected on ice. Striata were dissected and homogenized in 40 vol of ice-cold Tris-HCl (50 mM) containing 123 mM NaCl, 5 mM KCl, 2 mM CaCl₂ and 1 mM MgCl₂ (pH 7.4) using a Brinkman Polytron. The suspension was centrifuged at 30,000 x g for 10 min at 4°C, and the pellet was resuspended in 40 vol of fresh buffer with polytron. The suspension was incubated at 37°C for 10 min, centrifuged again at 30,000 x g for 10 min (4°C) and the final pellet was resuspended with the polytron in 200 vol of ice cold buffer. Assay tubes contained […] or radioligand at 2.9 nM concentration and 90 µL of the striatal membrane preparation. Nonspecific binding was determined in the presence of 10 µM(-)[¹²⁵I](S)-II. Tubes were incubated for 30 min at 37°C, poured over Whatman GF/B filters under vacuum, and the filters were rinsed three times with 4 mL of ice cold buffer. Radioactivity remaining on the filters was measured by liquid scintillation on a Quantum 9 Multichannel analyzer operating at 35% efficiency. […]

[4] = at 37°C, rat striatal membranes

Structure (SMILES)	IC50 (D-2 receptor [1])	IC50 (D-2 receptor [2])	maximal number of binding sites (D-2 receptor [3]; Scatchard analysis of the saturation isotherm, rat striatal membranes)	Kd (D-2 receptor [3]; Scatchard analysis of the saturation isotherm, single set of binding sites, rat striatal membranes)	time binding remained stable (D-2 receptor [3]; [4])	time for binding to reach equilibrium (D-2 receptor [3]; [4])	character of binding to rat striated membranes (D-2 receptor [3]; conditions of the receptor binding assay)
CCN1CCC[C@@H]1CNC(=O)c1cc(I)ccc1OC [(R)-II]	146 nM	169 nM	–	–	–	–	–
CCN1CCC[C@H]1CNC(=O)c1cc([125I])ccc1OC [Example 1]	–	–	169 fmol/mg protein	1 nM	at least 60 min	≤ 20 min	saturable, reversible and stereospecific
CCN1CCC[C@H]1CNC(=O)c1cc(I)ccc1OC [(S)-II, (S)-N-[(1-ethyl-2-pyrrolidinyl)methyl]-5-iodo-2-methoxybenzamide]	–	5 nM	–	–	–	–	–
